ChEMBL document CHEMBL4007434, “Indazole-Based Covalent Inhibitors To Target Drug-Resistant Epidermal Growth Factor Receptor” (J Med Chem, 2017)
The source made the active and inactive calls. No cut-off for these calls is given here.

How the values were obtained:
[1] = target: Tyrosine-protein kinase Blk (Homo sapiens) (UniProt P51451); assay: Inhibition of full-length recombinant human His-tagged cytoplasmic BLK expressed in baculovirus expression system at 1 uM by Z'-LYTE assay
[2] = target: Receptor tyrosine-protein kinase erbB-4 (Homo sapiens) (UniProt Q15303); assay: Inhibition of recombinant truncated human His/IgG1 Fc-tagged ERBB4 expressed in mammalian expression system at 1 uM by Z'-LYTE assay
Chain of Receptor tyrosine-protein kinase erbB-4 (Homo sapiens) (Q15303 whole entry, the tested form may be a part): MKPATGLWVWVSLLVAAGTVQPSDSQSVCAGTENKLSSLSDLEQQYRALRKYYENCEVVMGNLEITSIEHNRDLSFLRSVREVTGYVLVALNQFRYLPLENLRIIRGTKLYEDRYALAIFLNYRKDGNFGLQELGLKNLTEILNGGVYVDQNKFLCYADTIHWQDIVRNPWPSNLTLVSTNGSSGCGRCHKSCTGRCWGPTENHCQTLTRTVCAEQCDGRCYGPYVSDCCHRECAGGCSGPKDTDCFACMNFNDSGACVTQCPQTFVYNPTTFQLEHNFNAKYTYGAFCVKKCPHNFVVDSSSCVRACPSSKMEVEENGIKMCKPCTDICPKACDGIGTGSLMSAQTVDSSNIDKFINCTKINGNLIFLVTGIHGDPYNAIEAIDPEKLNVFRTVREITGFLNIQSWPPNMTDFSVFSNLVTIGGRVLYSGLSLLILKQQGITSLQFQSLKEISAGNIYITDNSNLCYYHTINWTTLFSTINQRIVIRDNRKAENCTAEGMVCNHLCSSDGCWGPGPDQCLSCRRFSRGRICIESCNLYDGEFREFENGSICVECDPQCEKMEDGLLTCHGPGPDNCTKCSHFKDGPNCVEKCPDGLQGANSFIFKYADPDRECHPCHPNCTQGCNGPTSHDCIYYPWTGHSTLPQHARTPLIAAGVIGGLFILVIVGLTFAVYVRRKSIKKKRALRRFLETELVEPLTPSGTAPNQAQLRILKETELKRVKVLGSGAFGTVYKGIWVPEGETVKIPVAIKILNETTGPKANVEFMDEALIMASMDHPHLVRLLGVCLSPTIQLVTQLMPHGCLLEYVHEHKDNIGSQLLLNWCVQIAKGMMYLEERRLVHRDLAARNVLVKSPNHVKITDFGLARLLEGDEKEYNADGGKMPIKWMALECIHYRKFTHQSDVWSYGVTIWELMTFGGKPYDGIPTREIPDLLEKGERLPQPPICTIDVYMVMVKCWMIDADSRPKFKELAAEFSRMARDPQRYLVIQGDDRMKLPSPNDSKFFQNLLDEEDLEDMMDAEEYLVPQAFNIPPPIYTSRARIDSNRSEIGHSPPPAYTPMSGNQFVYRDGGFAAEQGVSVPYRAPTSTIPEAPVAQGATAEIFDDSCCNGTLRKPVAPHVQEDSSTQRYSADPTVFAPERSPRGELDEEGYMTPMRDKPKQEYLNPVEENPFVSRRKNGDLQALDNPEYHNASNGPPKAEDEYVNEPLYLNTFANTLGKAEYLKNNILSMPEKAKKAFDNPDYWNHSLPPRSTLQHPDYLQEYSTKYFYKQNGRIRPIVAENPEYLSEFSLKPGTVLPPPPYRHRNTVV

[3] = system: Epidermal growth factor receptor (Homo sapiens), P00533 [T790M]; assay: Binding affinity to EGFR T790M mutant (unknown origin) assessed as covalent adduct formation at 100 uM after 1 hr by ESI-MS analysis
[4] = system: Liver; assay: Stability in human liver microsomes at 3 uM up to 50 mins by LCMS analysis; type: ADME, microsome
[5] = system: Epidermal growth factor receptor (Homo sapiens), P00533 [T790M]; details: 1 uM
[6] = system: Epidermal growth factor receptor (Homo sapiens), P00533 [L858R,T790M]; details: 1 uM
[7] = target: T1, Tyrosine-protein kinase TXK (Homo sapiens) (UniProt P42681); assay: Inhibition of full-length recombinant human N-terminal GST-tagged cytoplasmic TXK (260 to 527 amino acid residues) expressed in baculovirus expression system at 1 uM by Z'-LYTE assay
T1 sequence (whole entry): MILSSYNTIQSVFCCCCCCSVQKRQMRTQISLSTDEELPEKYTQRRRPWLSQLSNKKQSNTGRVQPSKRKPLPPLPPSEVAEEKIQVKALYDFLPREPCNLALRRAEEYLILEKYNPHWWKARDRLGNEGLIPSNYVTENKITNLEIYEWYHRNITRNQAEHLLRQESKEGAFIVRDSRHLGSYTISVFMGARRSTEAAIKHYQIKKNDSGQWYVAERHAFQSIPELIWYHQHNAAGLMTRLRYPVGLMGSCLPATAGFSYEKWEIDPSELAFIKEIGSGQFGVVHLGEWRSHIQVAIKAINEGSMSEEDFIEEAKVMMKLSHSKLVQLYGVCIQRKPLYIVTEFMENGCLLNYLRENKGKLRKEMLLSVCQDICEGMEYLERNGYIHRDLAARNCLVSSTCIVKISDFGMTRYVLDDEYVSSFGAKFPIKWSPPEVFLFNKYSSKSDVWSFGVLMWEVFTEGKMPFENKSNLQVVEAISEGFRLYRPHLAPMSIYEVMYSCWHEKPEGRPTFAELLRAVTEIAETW

[8] = target: Epidermal growth factor receptor (Homo sapiens, UniProt P00533, L858R/T790M)
[9] = system: Epidermal growth factor receptor (Homo sapiens), P00533 [L858R]; details: 1 uM
[10] = target: T2, Epidermal growth factor receptor (Homo sapiens, UniProt P00533); assay: Reversible inhibition of wild-type human N-terminal GST-tagged EGFR cytoplasmic domain (669 to 1210 end amino acid residues) expressed in baculovirus expression system using TK peptide substrate assessed as inactivation constant preincubated for 2 to 90 mins followed by 6-fold dilution
[11] = system: Epidermal growth factor receptor (Homo sapiens), P00533 [L858R]
[12] = target: T2, Epidermal growth factor receptor; assay: Reversible inhibition of wild-type human N-terminal GST-tagged EGFR cytoplasmic domain (669 to 1210 end amino acid residues) expressed in baculovirus expression system using TK peptide substrate preincubated for 2 to 90 mins followed by 6-fold dilution
[13] = target: T2, Epidermal growth factor receptor; assay: Inhibition of wild-type EGFR in human A431 cells assessed as reduction in cell viability after 96 hrs by CellTiterGlo assay; type: ADME, cell-based
[14] = Stability in mouse plasma assessed as compound remaining at 5 uM after 1 hr by LCMS analysis; type: ADME, cell-free; details: read-out: Stability
[15] = target: T2, Epidermal growth factor receptor; assay: Ratio of Kinact to Ki for reversible inhibition of wild-type human N-terminal GST-tagged EGFR cytoplasmic domain (669 to 1210 end amino acid residues) expressed in baculovirus expression system
[16] = target: Receptor tyrosine-protein kinase erbB-2 (Homo sapiens) (UniProt P04626); assay: Inhibition of ERBB2 (unknown origin) at 1 uM by Z'-LYTE assay
Chain of Receptor tyrosine-protein kinase erbB-2 (Homo sapiens) (P04626 whole entry, the tested form may be a part): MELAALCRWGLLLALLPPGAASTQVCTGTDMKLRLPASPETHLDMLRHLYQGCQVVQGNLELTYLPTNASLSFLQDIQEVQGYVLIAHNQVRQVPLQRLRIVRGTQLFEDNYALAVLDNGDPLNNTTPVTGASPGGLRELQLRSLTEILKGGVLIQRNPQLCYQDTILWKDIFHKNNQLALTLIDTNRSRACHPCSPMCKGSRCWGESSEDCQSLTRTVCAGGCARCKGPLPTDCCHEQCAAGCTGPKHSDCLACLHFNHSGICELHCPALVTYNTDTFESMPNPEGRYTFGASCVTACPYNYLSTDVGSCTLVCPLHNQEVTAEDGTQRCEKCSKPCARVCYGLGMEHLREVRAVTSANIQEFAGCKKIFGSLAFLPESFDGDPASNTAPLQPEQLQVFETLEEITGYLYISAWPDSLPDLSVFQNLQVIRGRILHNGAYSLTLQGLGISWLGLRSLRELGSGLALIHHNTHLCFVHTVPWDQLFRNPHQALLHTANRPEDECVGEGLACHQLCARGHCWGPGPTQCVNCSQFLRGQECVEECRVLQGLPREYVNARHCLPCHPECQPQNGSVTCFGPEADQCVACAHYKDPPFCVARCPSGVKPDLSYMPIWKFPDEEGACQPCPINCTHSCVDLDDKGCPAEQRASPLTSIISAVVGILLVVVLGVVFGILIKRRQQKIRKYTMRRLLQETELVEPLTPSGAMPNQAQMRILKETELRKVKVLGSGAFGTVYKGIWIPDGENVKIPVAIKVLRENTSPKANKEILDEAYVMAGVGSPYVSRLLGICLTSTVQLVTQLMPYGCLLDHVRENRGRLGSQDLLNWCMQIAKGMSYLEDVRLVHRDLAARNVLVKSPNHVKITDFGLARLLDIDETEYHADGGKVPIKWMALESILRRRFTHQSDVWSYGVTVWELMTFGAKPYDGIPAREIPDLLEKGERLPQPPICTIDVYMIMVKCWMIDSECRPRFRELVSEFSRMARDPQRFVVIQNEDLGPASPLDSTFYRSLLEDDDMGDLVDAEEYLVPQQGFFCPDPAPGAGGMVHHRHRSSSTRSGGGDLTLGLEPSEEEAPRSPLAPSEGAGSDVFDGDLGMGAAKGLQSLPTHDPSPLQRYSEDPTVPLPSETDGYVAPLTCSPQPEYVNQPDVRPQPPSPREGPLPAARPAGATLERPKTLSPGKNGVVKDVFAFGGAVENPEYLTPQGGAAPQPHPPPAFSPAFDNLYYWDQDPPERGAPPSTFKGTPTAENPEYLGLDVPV

[17] = target: Epidermal growth factor receptor (Homo sapiens, UniProt P00533, L858R); assay: Reversible inhibition of human N-terminal GST-tagged EGFR L858R mutant cytoplasmic domain (669 to 1210 end amino acid residues) expressed in baculovirus expression system using TK peptide substrate preincubated for 2 to 90 mins followed by 6-fold dilution
[18] = system: Epidermal growth factor receptor (Homo sapiens), P00533 [L861Q]; details: 1 uM

Chain of Tyrosine-protein kinase Blk (Homo sapiens) (P51451 2-505 limits assumed): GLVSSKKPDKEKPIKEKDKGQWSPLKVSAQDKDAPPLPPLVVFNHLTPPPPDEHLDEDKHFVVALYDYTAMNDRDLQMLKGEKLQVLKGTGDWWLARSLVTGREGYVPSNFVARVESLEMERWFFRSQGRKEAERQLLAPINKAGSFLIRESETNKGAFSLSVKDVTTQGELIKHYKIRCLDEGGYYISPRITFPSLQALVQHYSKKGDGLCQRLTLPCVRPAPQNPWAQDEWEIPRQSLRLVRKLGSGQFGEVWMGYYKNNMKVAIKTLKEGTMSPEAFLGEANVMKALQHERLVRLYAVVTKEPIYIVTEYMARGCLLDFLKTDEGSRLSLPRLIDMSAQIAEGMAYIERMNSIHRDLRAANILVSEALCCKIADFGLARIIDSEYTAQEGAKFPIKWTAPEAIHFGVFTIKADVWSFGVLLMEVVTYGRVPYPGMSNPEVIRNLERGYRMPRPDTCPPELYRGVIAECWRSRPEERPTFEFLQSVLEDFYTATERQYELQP

C=CC(=O)Nc1cc(Nc2n[nH]c3cc(Nc4cccc(F)c4)ccc23)c(OC)cc1N(C)CCN(C)C
inhibition [1]: > 85% | inhibition [2]: Active | Activity [3]: Active | Stability [4]: Stable | inhibition [5]: > 95% | inhibition [6]: > 95% | inhibition [7]: > 85% | IC50 [8]: < 1 nM | inhibition [9]: > 95% | kinact [10]: 0.00233 s⁻¹ | Kinact [11]: 0.09 min⁻¹ | Ki [12]: 5.1 nM | EC50 [13]: 3100 nM | remaining at 1 h, 5 µM [14]: > 90% | kinact/KI [15]: 470000 M⁻¹ s⁻¹ | inhibition [16]: Active | Ki [17]: 3.9 nM | inhibition [18]: > 95%
